Experimental data taken from patent publication US10603345B2, “Pharmaceutical composition for treating respiratory disease” (Kunming Institute of Botany, The Chinese Academy of Sciences, priority 2015, dated 2020).

Assays:
Format in all cases: in vivo
[1] = system: inflammatory cell in LPS-induced rat; experiment: Effect on inflammatory cell and classification in BALF of LPS-induced rat; conditions: ig 7 d, dose/kg: DXM 1.5 mg, Test group 1 30 mg, 2 15 mg, 3 7.5 mg, x ± S
Description: (§1) Animal source: 190˜220 g male SD rat, from laboratory animal department of Kunming Medical University, License No. SCXK (Dian) 2011-0004.
(§2) Method and route: lipopolysaccharide (LPS) was used to induce a rat airway inflammation model; after intragastrical administration for 7 d at a dose of 10 mL/kg, the animal was sacrificed at the eighth day.
(§3) Sample preparation: all the samples were prepared by using 0.5% carboxymethylcellulose sodium (0.5% CMC-Na).
Group and dose: in Test group 1 and Test group 2, the ratio of picrinine, vallesamine, scholaricine and 19-epischolaricine by weight was 43:16:30:8 and 20:38:30:7, respectively, and the other groups and doses thereof were as described in Example 9.
Test index: Total number of white blood cells (WBCs) and inflammatory cell classification in bronchoalveolar lavage fluid (BALF) were used as indexes.

[2] = system: IL-8 in LPS-induced rat; experiment: Effect on IL-8 in LPS-induced rat; conditions: ig 7 d, dose/kg: DXM 1.5 mg, Test group 1 30 mg, 2 15 mg, 3 7.5 mg, x ± S
Description: as §1, §2, §3
Group and dose: in Test group 1 and Test group 2, the ratio of picrinine, vallesamine, scholaricine and 19-epischolaricine by weight was 48:10:30:9 and 12:14:15:6, respectively, and the other groups and doses thereof were as described in Example 9.
Test index: IL-8 in bronchoalveolar lavage fluid (BALF), serum, and homogenate was used as index.

[3] = system: TNF-α in LPS-induced rat; experiment: Effect on TNF-α in LPS-induced rat; conditions: ig 7 d, dose/kg: DXM 1.5 mg, Test group 1 30 mg, 2 15 mg, 3 7.5 mg, x ± S
Description: as §1, §2, §3
Group and dose: in Test group 1 and Test group 2, the ratio of picrinine, vallesamine, scholaricine and 19-epischolaricine by weight was, 45:36:7:10 and 10:18:9:2, respectively, and the other groups and doses thereof were as described in Example 9.
Test index: TNF-α in bronchoalveolar lavage fluid (BALF), serum, and homogenate was used as index.

[4] = system: NO in LPS-induced rat; experiment: Effect on NO in LPS-induced rat; conditions: ig 7 d, dose/kg: DXM 1.5 mg, Test group 1 30 mg, 2 15 mg, 3 7.5 mg, x ± S
Description: as §1, §2, §3
Group and dose: in Test group 1 and Test group 2, the ratio of picrinine, vallesamine, scholaricine and 19-epischolaricine by weight was 40:30:28:2 and 15:18:26:7, respectively, and the other groups and doses thereof were as described in Example 9.
Test index: NO in bronchoalveolar lavage fluid (BALF), serum, and homogenate was used as index.

[5] = system: SOD in LPS-induced rat; experiment: Effect on SOD in LPS-induced rat; conditions: ig 7 d, dose/kg: DXM 1.5 mg, Test group 1 30 mg, 2 15 mg, 3 7.5 mg, x ± S
Description: as §1, §2, §3
Group and dose: in Test group 1 and Test group 2, the ratio of picrinine, vallesamine, scholaricine and 19-epischolaricine by weight was 8:45:29:9 and 20:14:12:7, respectively, and the other groups and doses thereof were as described in Example 9.
Test index: SOD in bronchoalveolar lavage fluid (BALF), serum, and homogenate was used as index.

[6] = system: MDA in LPS-induced rat; experiment: Effect on MDA in LPS-induced rat; conditions: ig 7 d, dose/kg: DXM 1.5 mg, Test group 1 30 mg, 2 15 mg, 3 7.5 mg, x ± S
Description: Group and dose: in Test group 1 and Test group 2, the ratio of picrinine, vallesamine, scholaricine and 19-epischolaricine by weight was 45:6:28:3 and 17:14:9:4, respectively, and the other groups and doses thereof were as described in Example 9.
Test index: MDA in bronchoalveolar lavage fluid (BALF), serum, and homogenate was used as index.

[7] = system: ALB in LPS-induced rat; experiment: Effect on ALB in LPS-induced rat; conditions: ig 7 d, dose/kg: DXM 1.5 mg, Test group 1 30 mg, 2 15 mg, 3 7.5 mg
Description: as §1, §2, §3
Group and dose: in Test group 1 and Test group 2, the ratio of picrinine, vallesamine, scholaricine and 19-epischolaricine by weight was 36:38:7:1 and 16:15:14:5, respectively, and the other groups and doses thereof were as described in Example 9.
Test index: ALB in bronchoalveolar lavage fluid (BALF), and serum was used as index.

[8] = system: AKP in LPS-induced rat; experiment: Effect on AKP in LPS-induced rat; conditions: ig 7 d, dose/kg: DXM 1.5 mg, Test group 1 30 mg, 2 15 mg, 3 7.5 mg
Description: as §1, §2, §3
Group and dose: in Test group 1 and Test group 2, the ratio of picrinine, vallesamine, scholaricine and 19-epischolaricine by weight was 8:25:30:9 and 12:10:9:2, respectively, and the other groups and doses thereof were as described in Example 9.
Test index: AKP in bronchoalveolar lavage fluid (BALF), and serum was used as index.

[9] = system: LDH in LPS-induced rat; experiment: Effect on LDH in LPS-induced rat; conditions: ig 7 d, dose/kg: DXM 1.5 mg, Test group 1 30 mg, 2 15 mg, 3 7.5 mg
Description: as §1, §2, §3
Group and dose: in Test group 1 and Test group 2, the ratio of picrinine, vallesamine, scholaricine and 19-epischolaricine by weight was 10:28:15:8 and 10:7:7:2, respectively, and the other groups and doses thereof were as described in Example 9.
Test index: LDH in bronchoalveolar lavage fluid (BALF), and serum was used as index.

In the case of `C[C@@H]1C[C@H]2[C@@H]3CCC4=CC(=O)C=C[C@]4(C)[C@@]3(F)[C@@H](O)C[C@]2(C)[C@@]1(O)C(=O)CO` [DXM, dexamethasone], the “BALF cell classification AM (alveolar macrophage)” value [1] was 52.5 ± 7.0 %, the “BALF cell classification L (lymphocyte)” value [1] was 9.3 ± 5.0^ % and the “BALF cell classification M (monocyte)” value [1] was 28.9 ± 6.20 %. The “BALF cell classification N (neutrophil)” value [1] was 8.2 ± 2.9 %, the WBC [1] was 3.35 ± 1.89 × 10^5/ml and the “IL-8 BALF” value ([2]; BALF) was 24.62 ± 12.42 pg/mL. The IL-8 lung tissue ([2]; lung tissue homogenate) was 60.62 ± 20.11 pg/mL, the IL-8 serum ([2]; serum) was 29.62 ± 12.13 pg/mL and the “TNF-a BALF” value ([3]; BALF) was 11.28 ± 4.51 pg/mL. The TNF-a lung tissue ([3]; lung tissue homogenate) was 152.11 ± 37.64 pg/mL, the “TNF-a Serum” value ([3]; serum) was 5.11 ± 1.67 pg/mL and the “NO BALF” value ([4]; BALF) was 13.52 ± 4.17 µmol/L. For the same molecule, the “NO Lung tissue” value ([4]; lung tissue homogenate) was 18.35 ± 5.30 µmol/L, the “NO Serum” value ([4]; serum) was 27.20 ± 7.67 µmol/L and the “SOD BALF” value ([5]; BALF) was 63.35 ± 13.45 U/mL. For the same molecule, the “SOD Lung tissue” value ([5]; lung tissue homogenate) was 92.25 ± 8.88 U/mL, the “SOD Serum” value ([5]; serum) was 307.6 ± 97.7 U/mL and the MDA lung tissue ([6]; lung tissue homogenate) was 1.61 ± 0.71 nmol/mL. For the same molecule, the “MDA Serum” value ([6]; serum) was 4.21 ± 1.49 nmol/mL, the “ALB BALF” value ([7]; BALF) was 0.18 ± 0.07 g/L and the “ALB Serum” value ([7]; serum) was 19.4 ± 1.4 g/L. For the same molecule, the “AKP BALF” value ([8]; BALF) was 29.0 ± 5.9 U/L, the “AKP Serum” value ([8]; serum) was 116.1 ± 36.0 U/L and the “LDH BALF” value ([9]; BALF) was 96.7 ± 25.6 U/L. For the same molecule, the “LDH Serum” value ([9]; serum) was 386.5 ± 92.7 U/L.
